This note sets out measurements from patent publication US9512089B2, “Tetrazole-substituted arylamides as P2X3 and P2X2/3 antagonists” (Roche Palo Alto LLC, priority 2007, dated 2016).

The assay has as its target T1, P2X2/3 receptor (Homo sapiens, UniProt P56373+Q9UBL9).
T1 construct: expressed in transfected cells; host or cells: CHO-K1
T1 sequence (P56373 1-397): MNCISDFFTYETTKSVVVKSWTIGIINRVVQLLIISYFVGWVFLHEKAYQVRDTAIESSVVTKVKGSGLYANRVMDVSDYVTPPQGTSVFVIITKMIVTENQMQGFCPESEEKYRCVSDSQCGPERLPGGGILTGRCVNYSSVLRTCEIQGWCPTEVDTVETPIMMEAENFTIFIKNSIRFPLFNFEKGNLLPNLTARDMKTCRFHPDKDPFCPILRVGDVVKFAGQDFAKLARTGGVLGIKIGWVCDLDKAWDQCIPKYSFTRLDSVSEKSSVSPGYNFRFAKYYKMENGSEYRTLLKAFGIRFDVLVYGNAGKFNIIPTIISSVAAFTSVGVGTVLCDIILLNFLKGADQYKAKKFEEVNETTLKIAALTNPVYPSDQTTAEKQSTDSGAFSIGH
T1 sequence (Q9UBL9 1-471): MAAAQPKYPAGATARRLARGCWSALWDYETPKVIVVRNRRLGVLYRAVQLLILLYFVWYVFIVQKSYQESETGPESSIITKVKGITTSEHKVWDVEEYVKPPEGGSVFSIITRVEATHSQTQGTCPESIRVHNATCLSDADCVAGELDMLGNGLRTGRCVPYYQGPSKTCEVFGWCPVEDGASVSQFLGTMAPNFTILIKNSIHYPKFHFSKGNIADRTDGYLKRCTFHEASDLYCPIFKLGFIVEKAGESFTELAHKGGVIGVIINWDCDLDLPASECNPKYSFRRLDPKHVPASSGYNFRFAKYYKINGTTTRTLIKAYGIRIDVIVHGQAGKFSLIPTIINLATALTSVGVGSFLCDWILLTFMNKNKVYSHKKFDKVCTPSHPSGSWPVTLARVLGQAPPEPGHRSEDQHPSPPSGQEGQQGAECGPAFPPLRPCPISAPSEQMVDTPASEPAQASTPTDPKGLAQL
Briefly: P2X2/3 FLIPR (Fluorometric Imaging Plate Reader) assay. The class given is cell-based. As to conditions: CHO-K1 cells transfected with human P2X2/3; agonist α,β-meATP 5 μM; Fluo-3 fluorescence. Here is the method: CHO-K1 cells were transfected with cloned rat P2X3 or human P2X2/3 receptor subunits and passaged in flasks. 18-24 hours before the FLIPR experiment, cells were released from their flasks, centrifuged, and resuspended in nutrient medium at 2.5×10^5 cells/ml. The cells were aliquoted into black-walled 96-well plates at a density of 50,000 cells/well and incubated overnight in 5% CO2 at 37° C. On the day of the experiment, cells were washed in FLIPR buffer (calcium- and magnesium-free Hank's balanced salt solution, 10 mM HEPES, 2 mM CaCl2, 2.5 mM probenecid; FB). Each well received 100 μl FB and 100 μl of the fluorescent dye Fluo-3 AM [2 μM final conc.]. […]
Test compounds (dissolved in DMSO at 10 mM and serially diluted with FB) or vehicle were added to each well (25 μl of a 4× solution) and allowed to equilibrate for 20 minutes at room temperature. The plates were then placed in the FLIPR and a baseline fluorescence measurement (excitation at 488 nm and emission at 510-570 nm) was obtained for 10 seconds before a 100 μl/well agonist or vehicle addition. […] Fluorescence was measured for an additional 2 minutes at 1 second intervals after agonist addition. A final addition of ionomycin (5 μM, final concentration) was made to each well of the FLIPR test plate to establish cell viability and maximum fluorescence of dye-bound cytosolic calcium. […]

For orientation: IC50 means the concentration needed to halve the response being measured. A high value points to weaker potency. With `CCc1nnnn1-c1cc(C(=O)NC(C)c2cnccn2)cc(-c2ccc(C)cc2)c1` (stereo not shown) [5-(5-ethyl-tetrazol-1-yl)-4′-methyl-biphenyl-3-carboxylic acid (1-pyrazin-2-yl-ethyl)-amide], the IC50 is roughly 7.94 nM.
